Values quoted from earlier work in article PMC9516332 (Frontiers in Oncology, 2022).
Where two headings read alike, the source gives them in different places.

Key:
Settings in all cases: cited from earlier work
[1] = biological target: panel of 255 wild-type kinases (Homo sapiens, UniProt P11362)
[2] = biological target: T1, panel of 255 wild-type kinases (Homo sapiens, UniProt Q02156)
T1 sequence (Q02156 1-737): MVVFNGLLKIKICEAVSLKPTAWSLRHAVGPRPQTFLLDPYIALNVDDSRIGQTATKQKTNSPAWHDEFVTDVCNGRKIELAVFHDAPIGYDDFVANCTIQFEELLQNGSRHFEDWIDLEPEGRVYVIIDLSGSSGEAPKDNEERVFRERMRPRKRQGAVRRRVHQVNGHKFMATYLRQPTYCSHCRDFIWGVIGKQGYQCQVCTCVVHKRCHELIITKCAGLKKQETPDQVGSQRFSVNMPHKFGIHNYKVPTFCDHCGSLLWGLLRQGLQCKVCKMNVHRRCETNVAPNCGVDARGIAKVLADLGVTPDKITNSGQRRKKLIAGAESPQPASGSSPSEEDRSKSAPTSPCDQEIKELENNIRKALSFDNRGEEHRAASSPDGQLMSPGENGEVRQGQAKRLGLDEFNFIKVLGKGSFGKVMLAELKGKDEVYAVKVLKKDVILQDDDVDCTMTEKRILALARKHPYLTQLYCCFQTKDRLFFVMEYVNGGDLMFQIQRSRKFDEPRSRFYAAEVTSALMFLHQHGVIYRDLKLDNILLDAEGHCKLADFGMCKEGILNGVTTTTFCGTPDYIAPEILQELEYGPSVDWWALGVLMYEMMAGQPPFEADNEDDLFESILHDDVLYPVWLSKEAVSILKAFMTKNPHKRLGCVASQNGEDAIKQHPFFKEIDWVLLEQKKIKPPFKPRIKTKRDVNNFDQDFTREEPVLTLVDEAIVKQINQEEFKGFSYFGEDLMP

[3] = biological target: panel of 255 wild-type kinases (Homo sapiens, UniProt Q15759)
[4] = biological target: panel of 255 wild-type kinases (Homo sapiens, UniProt Q16644)
[5] = biological target: T2, panel of 255 wild-type kinases (Homo sapiens, UniProt Q96PY6)
T2 sequence (Q96PY6 1-1258): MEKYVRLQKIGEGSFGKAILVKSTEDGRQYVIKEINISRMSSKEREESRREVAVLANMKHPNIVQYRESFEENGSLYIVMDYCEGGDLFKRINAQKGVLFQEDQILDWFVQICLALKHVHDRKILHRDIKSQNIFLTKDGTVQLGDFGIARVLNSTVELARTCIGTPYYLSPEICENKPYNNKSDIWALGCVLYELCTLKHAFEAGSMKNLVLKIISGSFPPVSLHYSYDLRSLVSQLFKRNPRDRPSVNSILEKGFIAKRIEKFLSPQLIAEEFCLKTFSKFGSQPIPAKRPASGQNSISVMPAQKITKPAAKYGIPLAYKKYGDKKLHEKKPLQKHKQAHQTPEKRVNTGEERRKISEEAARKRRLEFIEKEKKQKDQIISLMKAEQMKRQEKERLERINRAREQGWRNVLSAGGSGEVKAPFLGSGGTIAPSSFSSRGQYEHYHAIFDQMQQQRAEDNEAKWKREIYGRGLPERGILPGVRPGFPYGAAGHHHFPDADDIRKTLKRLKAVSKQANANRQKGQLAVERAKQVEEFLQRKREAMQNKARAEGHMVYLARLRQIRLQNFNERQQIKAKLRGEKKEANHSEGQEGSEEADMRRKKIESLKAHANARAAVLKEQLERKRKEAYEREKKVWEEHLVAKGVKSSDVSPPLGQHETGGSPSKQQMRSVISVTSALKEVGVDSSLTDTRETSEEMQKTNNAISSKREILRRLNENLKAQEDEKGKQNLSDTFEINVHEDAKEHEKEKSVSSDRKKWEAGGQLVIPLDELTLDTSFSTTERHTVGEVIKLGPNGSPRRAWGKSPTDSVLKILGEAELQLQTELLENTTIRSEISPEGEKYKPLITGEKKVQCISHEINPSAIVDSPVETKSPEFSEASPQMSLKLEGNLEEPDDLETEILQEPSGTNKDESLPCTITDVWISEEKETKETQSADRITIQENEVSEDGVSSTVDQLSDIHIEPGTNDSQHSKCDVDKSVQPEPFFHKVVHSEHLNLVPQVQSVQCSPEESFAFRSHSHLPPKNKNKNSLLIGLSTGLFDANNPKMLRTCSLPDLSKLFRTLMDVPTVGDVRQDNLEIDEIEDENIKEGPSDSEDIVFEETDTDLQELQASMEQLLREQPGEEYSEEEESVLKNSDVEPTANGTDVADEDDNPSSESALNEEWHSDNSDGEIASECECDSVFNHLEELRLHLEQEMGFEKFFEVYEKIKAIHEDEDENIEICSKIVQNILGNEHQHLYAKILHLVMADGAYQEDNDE

[6] = biological target: panel of 255 wild-type kinases (Homo sapiens, UniProt Q9H2G2)
[7] = biological target: panel of 255 wild-type kinases (Homo sapiens, UniProt Q9NQU5)
[8] = biological target: panel of 255 wild-type kinases (Homo sapiens, UniProt Q9UKE5)
[9] = kinase FGFR1, 1 µmol/L single concentration, ref DOI: 10.1158/1535-7163.MCT-18-0877
[10] = kinase PKCε, 1 µmol/L single concentration, ref DOI: 10.1158/1535-7163.MCT-18-0877
[11] = p38β, 1 µmol/L single concentration, ref DOI: 10.1158/1535-7163.MCT-18-0877
[12] = MAPKAPK3, 1 µmol/L single concentration, ref DOI: 10.1158/1535-7163.MCT-18-0877
[13] = NEK1, 1 µmol/L single concentration, ref DOI: 10.1158/1535-7163.MCT-18-0877
[14] = kinase SLK, 1 µmol/L single concentration, ref DOI: 10.1158/1535-7163.MCT-18-0877
[15] = PAK6, 1 µmol/L single concentration, ref DOI: 10.1158/1535-7163.MCT-18-0877
[16] = kinase TNIK, 1 µmol/L single concentration, ref DOI: 10.1158/1535-7163.MCT-18-0877
[17] = kinase FGFR1, 1 µmol/L single concentration, ref DOI: 10.1371/journal.pone.0092146
[18] = kinase PKCε, 1 µmol/L single concentration, ref DOI: 10.1371/journal.pone.0092146
[19] = p38β, 1 µmol/L single concentration, ref DOI: 10.1371/journal.pone.0092146
[20] = MAPKAPK3, 1 µmol/L single concentration, ref DOI: 10.1371/journal.pone.0092146
[21] = NEK1, 1 µmol/L single concentration, ref DOI: 10.1371/journal.pone.0092146
[22] = kinase SLK, 1 µmol/L single concentration, ref DOI: 10.1371/journal.pone.0092146
[23] = PAK6, 1 µmol/L single concentration, ref DOI: 10.1371/journal.pone.0092146

Row | SMILES | %-inhibition at 1 µmol/L, FGFR1 [1, 9] [%] | %-inhibition at 1 µmol/L, PKCε [2, 10] [%] | %-inhibition, p38β [3, 11] [%] | %-inhibition, MAPKAPK3 [4, 12] [%] | %-inhibition, NEK1 [5, 13] [%] | %-inhibition at 1 µmol/L, SLK [6, 14] [%] | %-inhibition, PAK6 [7, 15] [%] | %-inhibition at 1 µmol/L, TNIK [8, 16] [%] | further results
1 | CC#CC(=O)N1CCC[C@H]1c1nc(-c2ccc(C(=O)Nc3ccccn3)cc2)c2c(N)nccn12 [acalabrutinib] | -2.28 | -9 | -3 | -11 | -7.46 | 1.61 | -9 | -0.812 | 
2 | CCc1cc2c(cc1N1CCC(N3CCOCC3)CC1)C(C)(C)c1[nH]c3cc(C#N)ccc3c1C2=O [alectinib] | 5.37 | 10 | 0.144 | -0.429 | 5 | 12 | -8 | 31 | 
3 | COc1cc(N2CCC(N3CCN(C)CC3)CC2)ccc1Nc1ncc(Cl)c(Nc2ccccc2P(C)(C)=O)n1 [brigatinib] |  |  |  |  |  |  |  |  | %-inhibition at 1 µmol/L, FGFR1 [1]: 95%; %-inhibition at 1 µmol/L, PKCε [2]: 39%; %-inhibition, p38β [3]: 3.38%; %-inhibition, MAPKAPK3 [4]: -0.903%; %-inhibition, NEK1 [5]: 8%; %-inhibition at 1 µmol/L, SLK [6]: 95%; %-inhibition, PAK6 [7]: 26%; %-inhibition at 1 µmol/L, TNIK [8]: 19%
4 | Cc1cc(Nc2ncc(Cl)c(Nc3ccccc3S(=O)(=O)C(C)C)n2)c(OC(C)C)cc1C1CCNCC1 [ceritinib] | 11 | 11 | 2.35 | -10 | -1.68 | 64 | 18 | 25 | 
5 | O=C(c1ccc(F)c(F)c1Nc1ccc(I)cc1F)N1CC(O)([C@@H]2CCCCN2)C1 [cobimetinib] | -1.33 | 4.22 | 4 | 1.42 | 4.29 | 6 | 2 | 1.06 | 
6 | C[C@@H](Oc1cc(-c2cnn(C3CCNCC3)c2)cnc1N)c1c(Cl)ccc(F)c1Cl [crizotinib] |  |  |  |  |  |  |  |  | %-inhibition at 1 µmol/L, FGFR1 [1, 17]: 17%; %-inhibition at 1 µmol/L, PKCε [2, 18]: -7%; %-inhibition, p38β [3, 19]: 0.299%; %-inhibition, MAPKAPK3 [4, 20]: -13%; %-inhibition, NEK1 [5, 21]: 2.24%; %-inhibition at 1 µmol/L, SLK [6, 22]: 100%; %-inhibition, PAK6 [7, 23]: 3%; %-inhibition at 1 µmol/L, TNIK [8]: 11%
7 | CC(C)(C)c1nc(-c2cccc(NS(=O)(=O)c3c(F)cccc3F)c2F)c(-c2ccnc(N)n2)s1 [dabrafenib] |  |  |  |  |  |  |  |  | %-inhibition at 1 µmol/L, FGFR1 [1, 17]: 10%; %-inhibition at 1 µmol/L, PKCε [2, 18]: 5%; %-inhibition, p38β [3, 19]: 5.3%; %-inhibition, MAPKAPK3 [4, 20]: -11%; %-inhibition, NEK1 [5, 21]: 24%; %-inhibition at 1 µmol/L, SLK [6, 22]: 12%; %-inhibition, PAK6 [7, 23]: 9%; %-inhibition at 1 µmol/L, TNIK ([8]; kinase TNIK, 1 µmol/L single concentration, ref DOI: 10.1371/journal.pone.0092146): 15%
8 | C=CC(=O)N1CCC[C@@H](n2nc(-c3ccc(Oc4ccccc4)cc3)c3c(N)ncnc32)C1 [ibrutinib] | 71 | 8 | 9 | -6.5 | 3.73 | 12 | 9 | -1.62 | 
9 | CO[C@@H]1[C@H](N(C)C(=O)c2ccccc2)C[C@H]2O[C@]1(C)n1c3ccccc3c3c4c(c5c6ccccc6n2c5c31)C(=O)NC4 [midostaurin] | 93 | 84 | 1.19 | -7 | 13 | 85 | 52 | 94 | 
10 | C=CC(=O)Nc1cc(Nc2nccc(-c3cn(C)c4ccccc34)n2)c(OC)cc1N(C)CCN(C)C [osimertinib] | 3.51 | -12 | 4.56 | -9 | 2.43 | 17 | 7 | 84 | 
